Measurements published in ChEMBL document CHEMBL1154708, “Identification of a brain penetrant PDE9A inhibitor utilizing prospective design and chemical enablement as a rapid lead optimization strategy” (J Med Chem, 2009).
pIC50: −log10 of the molar value.

Assays:
[1] = target: Dual specificity calcium/calmodulin-dependent 3',5'-cyclic nucleotide phosphodiesterase 1C (Homo sapiens, UniProt Q14123); experiment: Inhibition of human recombinant PDE1C expressed in Sf9 cells by SPA
[2] = target: T1, High affinity cGMP-specific 3',5'-cyclic phosphodiesterase 9A (Homo sapiens, UniProt O76083); experiment: Inhibition of human recombinant PDE9A expressed in Sf9 cells by SPA; settings: for pIC50: read-out: IC50
T1 sequence (O76083 whole entry): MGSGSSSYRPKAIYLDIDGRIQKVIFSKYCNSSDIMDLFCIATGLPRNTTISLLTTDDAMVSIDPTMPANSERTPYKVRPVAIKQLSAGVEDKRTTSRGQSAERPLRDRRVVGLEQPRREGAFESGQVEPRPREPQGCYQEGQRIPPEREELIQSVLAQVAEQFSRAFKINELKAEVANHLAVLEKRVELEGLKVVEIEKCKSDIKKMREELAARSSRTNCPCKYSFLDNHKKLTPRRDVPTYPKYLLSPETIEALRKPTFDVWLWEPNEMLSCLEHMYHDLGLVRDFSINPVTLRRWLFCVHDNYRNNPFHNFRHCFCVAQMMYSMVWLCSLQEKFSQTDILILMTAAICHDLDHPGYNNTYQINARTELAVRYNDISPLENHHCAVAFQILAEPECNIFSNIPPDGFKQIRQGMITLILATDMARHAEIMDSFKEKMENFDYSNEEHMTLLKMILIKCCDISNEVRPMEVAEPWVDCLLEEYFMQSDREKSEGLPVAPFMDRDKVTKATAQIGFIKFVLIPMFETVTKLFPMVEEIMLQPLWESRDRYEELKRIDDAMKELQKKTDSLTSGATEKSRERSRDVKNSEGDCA

Mus musculus [3] = experiment: Increase in cGMP level in CD1 mouse striatum at 3.2 mg/kg, sc after 30 mins; type: functional; settings: route subcutaneous
Mus musculus [4] = experiment: Increase in […] level in CD1 mouse striatum at 0.32 mg/kg, sc after 30 mins; type: functional; settings: route subcutaneous
[5] = target: cGMP-inhibited 3',5'-cyclic phosphodiesterase 3A (Homo sapiens, UniProt Q14432); experiment: Inhibition of PDE3A
Sequence of cGMP-inhibited 3',5'-cyclic phosphodiesterase 3A (Q14432 whole entry): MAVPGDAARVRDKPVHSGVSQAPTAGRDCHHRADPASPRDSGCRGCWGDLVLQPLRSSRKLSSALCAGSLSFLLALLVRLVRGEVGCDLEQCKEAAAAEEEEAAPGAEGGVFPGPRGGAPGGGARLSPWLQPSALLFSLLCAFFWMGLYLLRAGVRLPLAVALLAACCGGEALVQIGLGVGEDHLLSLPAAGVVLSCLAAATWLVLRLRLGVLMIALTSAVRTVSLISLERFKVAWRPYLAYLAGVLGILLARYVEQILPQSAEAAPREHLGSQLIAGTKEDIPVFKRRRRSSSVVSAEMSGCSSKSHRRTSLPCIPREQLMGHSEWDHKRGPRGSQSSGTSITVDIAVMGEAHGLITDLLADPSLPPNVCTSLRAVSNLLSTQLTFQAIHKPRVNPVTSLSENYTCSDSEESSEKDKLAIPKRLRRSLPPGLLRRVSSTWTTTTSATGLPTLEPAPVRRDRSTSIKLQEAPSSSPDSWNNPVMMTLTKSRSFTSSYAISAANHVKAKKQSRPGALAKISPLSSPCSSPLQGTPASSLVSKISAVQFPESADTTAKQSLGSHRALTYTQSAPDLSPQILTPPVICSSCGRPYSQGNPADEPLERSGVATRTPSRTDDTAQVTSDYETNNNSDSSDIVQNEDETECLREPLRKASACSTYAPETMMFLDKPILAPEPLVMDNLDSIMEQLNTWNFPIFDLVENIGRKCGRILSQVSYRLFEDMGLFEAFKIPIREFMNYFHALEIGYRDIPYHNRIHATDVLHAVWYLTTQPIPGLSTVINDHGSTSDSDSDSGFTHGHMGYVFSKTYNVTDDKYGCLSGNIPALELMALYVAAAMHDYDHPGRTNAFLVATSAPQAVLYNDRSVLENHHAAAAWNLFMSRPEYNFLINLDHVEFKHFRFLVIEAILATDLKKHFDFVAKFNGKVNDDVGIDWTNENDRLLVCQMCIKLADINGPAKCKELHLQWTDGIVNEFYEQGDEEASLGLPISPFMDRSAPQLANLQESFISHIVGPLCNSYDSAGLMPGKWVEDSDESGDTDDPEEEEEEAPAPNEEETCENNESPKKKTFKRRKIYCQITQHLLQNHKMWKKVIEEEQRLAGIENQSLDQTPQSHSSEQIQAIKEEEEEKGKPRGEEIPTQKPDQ

[6] = target: Dual 3',5'-cyclic-AMP and -GMP phosphodiesterase 11A (Homo sapiens, UniProt Q9HCR9); experiment: Inhibition of PDE11
Sequence of Dual 3',5'-cyclic-AMP and -GMP phosphodiesterase 11A (Q9HCR9 whole entry): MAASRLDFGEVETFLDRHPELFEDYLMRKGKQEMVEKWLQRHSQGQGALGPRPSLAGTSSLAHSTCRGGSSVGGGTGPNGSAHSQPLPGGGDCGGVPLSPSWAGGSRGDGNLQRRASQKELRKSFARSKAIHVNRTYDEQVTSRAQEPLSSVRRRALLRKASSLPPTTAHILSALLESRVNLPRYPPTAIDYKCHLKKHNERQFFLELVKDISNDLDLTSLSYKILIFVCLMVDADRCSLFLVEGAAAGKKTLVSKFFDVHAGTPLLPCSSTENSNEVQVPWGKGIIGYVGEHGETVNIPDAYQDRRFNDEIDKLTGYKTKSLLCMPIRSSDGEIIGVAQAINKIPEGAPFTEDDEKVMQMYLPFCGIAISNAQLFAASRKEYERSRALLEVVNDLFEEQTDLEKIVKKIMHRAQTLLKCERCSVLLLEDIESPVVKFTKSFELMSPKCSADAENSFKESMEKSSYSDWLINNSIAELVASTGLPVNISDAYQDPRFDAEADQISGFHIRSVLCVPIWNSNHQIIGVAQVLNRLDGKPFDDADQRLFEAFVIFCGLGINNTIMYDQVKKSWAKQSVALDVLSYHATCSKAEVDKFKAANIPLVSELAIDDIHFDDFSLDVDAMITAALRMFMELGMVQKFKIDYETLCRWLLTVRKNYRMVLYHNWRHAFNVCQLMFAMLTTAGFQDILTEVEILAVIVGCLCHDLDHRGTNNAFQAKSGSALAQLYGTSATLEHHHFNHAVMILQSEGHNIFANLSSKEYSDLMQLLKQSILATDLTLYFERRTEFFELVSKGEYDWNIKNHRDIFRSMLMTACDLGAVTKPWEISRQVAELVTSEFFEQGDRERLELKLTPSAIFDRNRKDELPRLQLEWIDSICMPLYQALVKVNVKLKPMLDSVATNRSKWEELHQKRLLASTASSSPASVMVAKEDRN

[7] = target: 3',5'-cyclic-AMP phosphodiesterase 4C (Homo sapiens, UniProt Q08493); experiment: Inhibition of PDE4C
Mus musculus [8] = experiment: Increase in […] level in CD1 mouse striatum at 10 mg/kg, sc after 30 mins; type: functional; settings: route subcutaneous
Mus musculus [9] = experiment: Increase in […] level in CD1 mouse striatum at 1 mg/kg, sc after 30 mins; type: functional; settings: route subcutaneous
[10] = target: 3',5'-cyclic-AMP phosphodiesterase 7B (Homo sapiens, UniProt Q9NP56); experiment: Inhibition of PDE7B
Sequence of 3',5'-cyclic-AMP phosphodiesterase 7B (Q9NP56 whole entry): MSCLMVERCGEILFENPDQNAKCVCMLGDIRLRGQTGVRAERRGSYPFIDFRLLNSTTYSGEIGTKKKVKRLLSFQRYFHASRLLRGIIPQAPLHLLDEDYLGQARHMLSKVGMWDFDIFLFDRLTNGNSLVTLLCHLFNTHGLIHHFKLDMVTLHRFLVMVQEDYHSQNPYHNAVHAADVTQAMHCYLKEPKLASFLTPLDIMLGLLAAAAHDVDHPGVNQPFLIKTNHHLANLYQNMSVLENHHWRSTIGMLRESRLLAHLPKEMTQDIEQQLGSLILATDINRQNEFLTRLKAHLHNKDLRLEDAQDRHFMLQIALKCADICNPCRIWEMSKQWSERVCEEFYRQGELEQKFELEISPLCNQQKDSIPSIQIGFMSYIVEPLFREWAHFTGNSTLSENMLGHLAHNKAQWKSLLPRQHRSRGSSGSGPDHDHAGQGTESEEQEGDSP

Mus musculus [11] = experiment: Increase in cGMP level in sc dosed CD1 mouse striatum after 30 mins; type: functional, organism-based
[12] = target: cGMP-specific 3',5'-cyclic phosphodiesterase (Homo sapiens, UniProt O76074); experiment: Inhibition of PDE5
[13] = target: High affinity cAMP-specific and IBMX-insensitive 3',5'-cyclic phosphodiesterase 8B (Homo sapiens, UniProt O95263); experiment: Inhibition of PDE8B
Sequence of High affinity cAMP-specific and IBMX-insensitive 3',5'-cyclic phosphodiesterase 8B (O95263 whole entry): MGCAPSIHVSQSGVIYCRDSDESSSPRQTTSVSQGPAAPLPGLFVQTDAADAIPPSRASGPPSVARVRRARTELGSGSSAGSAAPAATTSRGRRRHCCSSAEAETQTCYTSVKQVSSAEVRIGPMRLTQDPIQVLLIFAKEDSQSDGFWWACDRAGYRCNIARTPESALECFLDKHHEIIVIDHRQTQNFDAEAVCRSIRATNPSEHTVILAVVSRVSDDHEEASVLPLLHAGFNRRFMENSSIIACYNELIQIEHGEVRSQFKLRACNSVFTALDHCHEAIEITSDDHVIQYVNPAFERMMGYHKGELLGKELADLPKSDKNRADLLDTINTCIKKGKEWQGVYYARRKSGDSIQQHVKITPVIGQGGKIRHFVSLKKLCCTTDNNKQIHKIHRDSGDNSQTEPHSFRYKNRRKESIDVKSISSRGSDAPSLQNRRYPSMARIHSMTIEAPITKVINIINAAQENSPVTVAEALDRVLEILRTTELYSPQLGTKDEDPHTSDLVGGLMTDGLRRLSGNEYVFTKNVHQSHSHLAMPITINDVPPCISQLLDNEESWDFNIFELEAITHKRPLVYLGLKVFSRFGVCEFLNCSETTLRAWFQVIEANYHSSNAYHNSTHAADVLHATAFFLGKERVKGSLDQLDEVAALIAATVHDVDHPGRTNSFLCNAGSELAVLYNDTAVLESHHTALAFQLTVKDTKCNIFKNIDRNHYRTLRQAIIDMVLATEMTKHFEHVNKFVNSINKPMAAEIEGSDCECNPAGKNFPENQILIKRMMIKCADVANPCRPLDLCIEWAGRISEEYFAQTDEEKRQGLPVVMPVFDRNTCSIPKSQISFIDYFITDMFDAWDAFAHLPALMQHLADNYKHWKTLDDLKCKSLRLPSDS

[14] = Inhibition of PDE2
[15] = target: cAMP and cAMP-inhibited cGMP 3',5'-cyclic phosphodiesterase 10A (Homo sapiens, UniProt Q9Y233); experiment: Inhibition of PDE10
[16] = Inhibition of PDE6
[17] = Ratio of drug level in brain to plasma of rat; type: ADME, cell-free; settings: brain and plasma
[18] = target: T1, High affinity cGMP-specific 3',5'-cyclic phosphodiesterase 9A; experiment: Binding affinity to PDE9A

Sequence of Dual specificity calcium/calmodulin-dependent 3',5'-cyclic nucleotide phosphodiesterase 1C (Q14123 whole entry): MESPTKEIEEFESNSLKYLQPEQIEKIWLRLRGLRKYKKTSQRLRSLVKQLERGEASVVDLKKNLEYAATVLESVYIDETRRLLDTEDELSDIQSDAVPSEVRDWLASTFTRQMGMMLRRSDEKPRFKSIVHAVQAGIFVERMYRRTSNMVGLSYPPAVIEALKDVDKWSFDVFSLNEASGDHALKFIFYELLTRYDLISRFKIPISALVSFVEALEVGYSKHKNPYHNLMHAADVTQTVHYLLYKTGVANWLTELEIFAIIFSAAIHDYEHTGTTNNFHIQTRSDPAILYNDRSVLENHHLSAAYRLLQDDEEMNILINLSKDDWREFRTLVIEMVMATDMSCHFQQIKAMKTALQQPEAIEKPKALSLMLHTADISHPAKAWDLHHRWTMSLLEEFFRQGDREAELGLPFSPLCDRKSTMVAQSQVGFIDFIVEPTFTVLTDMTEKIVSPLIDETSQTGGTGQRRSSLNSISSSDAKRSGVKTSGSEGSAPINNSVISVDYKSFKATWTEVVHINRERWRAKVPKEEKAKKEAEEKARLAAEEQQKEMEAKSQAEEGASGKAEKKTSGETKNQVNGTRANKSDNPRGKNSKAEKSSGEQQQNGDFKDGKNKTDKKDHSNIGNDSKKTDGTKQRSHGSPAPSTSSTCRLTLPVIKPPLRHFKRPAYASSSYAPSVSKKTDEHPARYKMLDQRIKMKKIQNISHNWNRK

pIC50 [1] | pIC50 [2] | SMILES | also measured
6.72 | 7.80 | C[C@@H]1CN(Cc2ccc(C(F)(F)F)nc2)C[C@H]1c1nc2c(cnn2C2CCCC2)c(=O)[nH]1 | –
7.30 | 8.74 | C[C@@H]1CN(Cc2ccc3nccnc3c2)C[C@H]1c1nc2c(cnn2C2CCCC2)c(=O)[nH]1 | Activity (Mus musculus [3]): 145%; Activity (Mus musculus [4]): 110%; pIC50 [5]: < 6.00; pIC50 [6]: < 6.00; pIC50 [7]: < 6.00; Activity (Mus musculus [8]): 215%; Activity (Mus musculus [9]): 119%; pIC50 [10]: < 6.00; Activity (Mus musculus [11]): Dose-dependent effect; pIC50 [12]: 6.46; pIC50 [13]: < 6.00; pIC50 [14]: < 6.00; pIC50 [15]: < 6.00; pIC50 [16]: 6.90; Kp [17]: 1.4
– | – | Cn1cc(-c2ccncc2)c(-c2ccc(OCc3ccc4ccccc4n3)cc2)n1 | Activity [18]: 2.1 nM
7.14 | 8.72 | C[C@H]1CN(Cc2ccc3nccnc3c2)C[C@@H]1c1nc2c(cnn2C2CCCC2)c(=O)[nH]1 (relative stereo) | –
6.66 | 7.92 | C[C@@H]1CN(Cc2cn3ccccc3n2)C[C@H]1c1nc2c(cnn2C2CCCC2)c(=O)[nH]1 (relative stereo) | –
5.68 | – | CC(C)n1ncc2c(=O)[nH]c([C@@H]3CN(Cc4ccccc4)C[C@H]3C)nc21 (relative stereo) | –
6.01 | 7.20 | C[C@@H]1CN(Cc2ccccc2)C[C@H]1c1nc2c(cnn2C2CCCC2)c(=O)[nH]1 (relative stereo) | –
6.25 | 7.40 | Cc1cccc(CN2C[C@@H](C)[C@H](c3nc4c(cnn4C4CCCC4)c(=O)[nH]3)C2)c1 (relative stereo) | IC50 ([2]; read-out: pIC50 (converted)): 38 nM
6.57 | 7.54 | COc1ccc(CN2C[C@@H](C)[C@H](c3nc4c(cnn4C4CCCC4)c(=O)[nH]3)C2)cn1 (relative stereo) | –
6.68 | 7.82 | Cc1cnc(CN2C[C@@H](C)[C@H](c3nc4c(cnn4C4CCCC4)c(=O)[nH]3)C2)cn1 (relative stereo) | –
6.70 | 7.96 | Cc1cc(CN2C[C@@H](C)[C@H](c3nc4c(cnn4C4CCCC4)c(=O)[nH]3)C2)n(C)n1 (relative stereo) | –
5.82 | 6.82 | CC(C)Cn1ncc2c(=O)[nH]c([C@@H]3CN(Cc4ccccc4)C[C@H]3C)nc21 (relative stereo) | –
6.40 | 7.96 | Cc1ncc(CN2C[C@@H](C)[C@H](c3nc4c(cnn4C4CCCC4)c(=O)[nH]3)C2)cn1 (relative stereo) | –
5.89 | 6.70 | C[C@@H]1CN(Cc2ccccn2)C[C@H]1c1nc2c(cnn2C2CCCC2)c(=O)[nH]1 (relative stereo) | –
6.96 | 7.96 | Cc1cc(CN2C[C@@H](C)[C@H](c3nc4c(cnn4C4CCCC4)c(=O)[nH]3)C2)no1 (relative stereo) | –
